Laboratory results: patent US8026073B2, “Screening G protein-coupled receptor antagonists for methods of treating Alzheimer's disease” (Shanghai Institutes for Biological Sciences, Chinese …, priority 2005, dated 2011)
“Also recorded” adds a separate entry of the source.

Tests used:
[1] = stated as a property, no test described; cited from earlier work
APPswe/PS1ΔE9 mice [2] = test: Morris water maze, APPswe/PS1ΔE9 mice, Animal Model Experiment 1; conditions: for percent time spent in the platform quadrant, probe trial: 24 h after the final hidden platform training; for percent time spent in the platform quadrant, probe trial / escape latency, hidden platform training: versus control transgenic mice; for escape latency, visible platform training / escape latency, hidden platform training: oral administration from 4 months of age; for escape latency, visible platform training: transgenic mice; for swim speed as cause of the observed effects: FIG. 15d, 16d, 17d
γ-secretase [3] = test: γ-Secretase fluorogenic substrate assay, SH-SY5Y neuroblastoma; type: cell-based
Experimental: The enhancement of γ-secretase activity upon activation of receptors is not limited to β-AR. Similar results were also observed when endogenous DOR in SH-SY5Y neuroblastoma (FIG. 7a) or in primary hippocampal cultures (FIG. 7b) were stimulated.
Again, the involvement of LEL in the enhancement of the γ-secretase activity is not limited to β-AR. […] The experiment shown in FIG. 12 was performed with SH-SY5Y neuroblastoma. […] The fractions were subjected to […] (Aβ) assay and fluorogenic substrate assay.

γ-secretase [4] = test: γ-Secretase fluorogenic substrate assay, acute hippocampal slices; type: cell-based, rat; conditions: 1 μM DADLE, 30 minutes
[5] = tested on: APPswe/PS1ΔE9 double-transgenic mice; test: Morris water maze, APPswe/PS1ΔE9 mice, Animal Model Experiment 2; type: in vivo, mouse; conditions: for escape latency, visible platform / escape latency, hidden platform: oral daily for 30 days, 2 mg/kg clenbuterol or 1 mg/kg ICI 118,551; for escape latency, hidden platform: versus Sal mice
Experimental: In further animal experiments, four-month old APPswe/PS1ΔE9 double-transgenic mice were orally administered with saline (Sal), 2 mg/kg clenbuterol (Cle, a β2AR-selective agonist) or 1 mg/kg ICI 118,551 (ICI, a β2AR-selective antagonist) daily for 30 days.
The water maze was a circular 1.2 m pool filled with water at 24-25° C. and made opaque by the addition of milk powder. The pool was placed amid fixed spatial cues consisting of boldly patterned curtains and shelves containing distinct objects. […] Mice first underwent visible platform training for 2 consecutive days (eight trials per day), swimming to a raised circular platform (10 cm of diameter) marked with a pole. Visible platform days were split into two training blocks of four trials for statistical analysis. During visible platform training, both the platform location (NE, SE, SW, or NW) and start position (N, […], S, or W) were varied pseudo-randomly in each trial.
Hidden platform raining was conducted over 6 consecutive days (four trials per day), wherein mice were allowed to search for a platform submerged 1.5 cm beneath the surface of the water. Mice failing to reach the platform within 60 sec were led to the platform. During hidden-platform trials, the location of the platform remained constant, and mice entered the pool in one of the four pseudo-randomly selected locations (N, E, S, or W). After each hidden platform trial, mice remained on the platform for 30 sec and were removed from the platform and returned to their home cage.
Twenty-four hours after the final hidden platform training, a probe trial was conducted in which the platform was removed from the pool and mice were allowed to search for the platform for 60 sec. All trials were monitored by a camera mounted directly above the pool and were recorded and analyzed using a computerized tracking system.

APPswe/PS1ΔE9 mice [6] = test: Cerebral amyloid plaque formation in APPswe/PS1ΔE9 mice after chronic administration; conditions: daily for 30 days, 3 nM Iso i.c.v., 2 mg/kg Cle oral, 1 mg/kg ICI 118,551 oral
endogenous β-ARs = test: Secreted Aβ ELISA in primary hippocampal cultures expressing C99, β-AR stimulation; type: cell-based, rat; conditions: 10 μM Iso, 1 h
γ-secretase [7] = test: γ-Secretase fluorogenic substrate assay, C6 glioma membrane fractions; type: cell-based
γ-secretase [8] = conditions: wild-type versus presenilin-deficient MEFs; 10 μM Iso, 30 min
γ-secretase [9] = test: Immunofluorescence microscopy of acute hippocampal slices, localization of γ-secretase in LEL; conditions: Iso treatment
β2AR = target: T1, β2AR (Homo sapiens, UniProt P07550); test: Secreted Aβ ELISA in HEK293 cells co-expressing β2AR and APPswe; type: cell-based; conditions: 10 μM Iso 1 h with 10 μM Pro, or after 6-h pre-treatment with 1 μM L685,458
T1 construct: expressed in transfected cells; host or cells: HEK293

Aβ40 and Aβ42 = test: Aβ levels in rat hippocampus after acute injection (rat Aβ ELISA); conditions: rats, 2 μg norepinephrine i.c.v. or 0.5 mg/kg clenbuterol i.p.
γ-secretase [10] = test: γ-Secretase activity in rat hippocampus after acute injection (fluorogenic substrate assay); conditions: rats, 2 μg norepinephrine i.c.v. or 0.5 mg/kg clenbuterol i.p.
δ-opioid receptor (DOR) = δ-opioid receptor (DOR) (Homo sapiens, UniProt P41143); conditions: C99-transfected HEK293 cells; DADLE plus NALT
γ-secretase [11] = test: γ-Secretase fluorogenic substrate assay, HEK293 cells treated with transferrin; type: cell-based; conditions: transferrin-induced endocytosis
Experimental: However, it is till not clear whether clathrin-mediated endocytosis by itself is […] to induce the enhancement of γ-secretase activity. To answer this question, HEK293 cells were treated with transferrin, which can induce constitutive clathrin-dependent endocytosis of transferrin receptor.

T1 sequence (P07550 whole entry): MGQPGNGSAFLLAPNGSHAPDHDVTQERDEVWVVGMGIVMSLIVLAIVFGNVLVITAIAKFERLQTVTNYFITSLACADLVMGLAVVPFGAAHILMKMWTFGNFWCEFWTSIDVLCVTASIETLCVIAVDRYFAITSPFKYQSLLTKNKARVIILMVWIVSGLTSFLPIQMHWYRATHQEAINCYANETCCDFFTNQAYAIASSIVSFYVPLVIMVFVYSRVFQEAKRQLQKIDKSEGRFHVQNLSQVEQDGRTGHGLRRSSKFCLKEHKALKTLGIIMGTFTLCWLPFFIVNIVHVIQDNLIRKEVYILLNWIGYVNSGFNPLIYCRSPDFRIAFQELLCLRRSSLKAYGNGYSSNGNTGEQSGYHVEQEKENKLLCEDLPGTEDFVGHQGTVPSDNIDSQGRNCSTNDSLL
Chain of δ-opioid receptor (DOR) (P41143 whole entry): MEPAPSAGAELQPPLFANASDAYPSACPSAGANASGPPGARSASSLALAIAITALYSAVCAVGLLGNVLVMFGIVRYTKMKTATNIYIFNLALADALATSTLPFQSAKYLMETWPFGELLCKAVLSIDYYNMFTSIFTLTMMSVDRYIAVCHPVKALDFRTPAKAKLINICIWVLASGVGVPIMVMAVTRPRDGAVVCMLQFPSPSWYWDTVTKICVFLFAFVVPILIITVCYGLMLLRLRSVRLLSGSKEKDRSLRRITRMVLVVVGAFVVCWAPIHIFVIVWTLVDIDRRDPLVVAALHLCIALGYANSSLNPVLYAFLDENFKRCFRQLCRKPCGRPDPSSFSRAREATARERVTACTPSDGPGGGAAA

Compound: CC(C)NCC(O)COc1ccc(CCOCC2CC2)cc1 (centres unmarked) [Betaxolol]
- crossing of the blood-brain barrier (BBB) [1]: can cross the BBB
- percent time spent in the platform quadrant, probe trial (APPswe/PS1ΔE9 mice [2]): showed less significant effect; also recorded: showed no effect
- escape latency, visible platform training (APPswe/PS1ΔE9 mice [2]): no drug effect was observed
- escape latency, hidden platform training (APPswe/PS1ΔE9 mice [2]): showed some effect; also recorded: showed some extent of amelioration, but the effect was not statistically significant

Compound: COc1ccc(OC)c(C(O)C(C)NC(C)(C)C)c1 (centres unmarked) [Butoxamine]
- crossing of the blood-brain barrier (BBB) [1]: can cross the BBB
- swim speed as cause of the observed effects (APPswe/PS1ΔE9 mice [2]): not due to difference in swim speeds
- escape latency, visible platform training (APPswe/PS1ΔE9 mice [2]): no drug effect was observed
- escape latency, hidden platform training (APPswe/PS1ΔE9 mice [2]): significantly ameliorated cognitive impairment

Compound: CC(C)C[C@@H](NC(=O)[C@H](Cc1ccccc1)NC(=O)CNC(=O)[C@@H](C)NC(=O)[C@@H](N)Cc1ccc(O)cc1)C(=O)O [DADLE, [D-Ala^2, D-Leu^5]-enkephalin]
- γ-secretase activity (γ-secretase [3]; SH-SY5Y neuroblastoma, 1 μM DADLE, 30 minutes): enhanced γ-secretase activity
- γ-secretase activity in the AP positive fraction (γ-secretase [3]; SH-SY5Y, 1 μM DADLE 30 minutes, then fractionated): enhanced the γ-secretase activity in the AP positive fraction
- γ-secretase activity (γ-secretase [4]): enhanced γ-secretase activity

Compound: Cc1ccc(OCC(O)C(C)NC(C)C)c2c1CCC2 (centres unmarked) [ICI 118,551]
- percentage time spent on the platform, probe trial ([5]; 24-h after final hidden platform training, 1 mg/kg ICI 118,551 oral daily for 30 days, listed as ICI): spent greater proportion of time in the platform; also recorded: spent greater proportion of time in the target quadrant
- escape latency, visible platform [5]: small, but statistically insignificant, effects of drug treatments; also recorded: No significant effect
- escape latency, hidden platform [5]: displayed a faster learning curve than the Sal mice; also recorded: displayed a faster learning curve than the Sal ones
- crossing of the blood-brain barrier (BBB) [1]: can cross the BBB
- swim speed as cause of the observed effects (APPswe/PS1ΔE9 mice [2]): did not result from changes in swim speeds
- escape latency, visible platform training (APPswe/PS1ΔE9 mice [2]): no drug effect was observed
- escape latency, hidden platform training (APPswe/PS1ΔE9 mice [2]): significantly ameliorated cognitive impairment
- cerebral amyloid plaques (APPswe/PS1ΔE9 mice [6]): significantly reduced the amounts of amyloid plaques; also recorded: effective in suppressing the formation of β-amyloid plaques

Compound: CC(C)NCC(O)c1ccc(O)c(O)c1 (centres unmarked) [Iso, isoproterenol]
- secreted Aβ (endogenous β-ARs): increases Aβ production
- γ-secretase activity, compound alone (γ-secretase [7]): γ-secretase activity was enhanced
- Iso-induced enhancement of γ-secretase activity (γ-secretase [8]): Presenilin-deficiency abolished the Iso-induced enhancement
- cerebral amyloid plaques (APPswe/PS1ΔE9 mice [6]): increased cerebral amyloid plaques; also recorded: accelerated amyloid plaque formation
- co-localization of PS1 or nicastrin with LAMP-1 (γ-secretase [9]): increased

Compound: CC(C)C[C@H](NC(=O)[C@H](Cc1ccccc1)C[C@@H](O)[C@H](Cc1ccccc1)NC(=O)OC(C)(C)C)C(=O)N[C@@H](Cc1ccccc1)C(N)=O [L685,458]
- effect on Iso-induced increase in secreted Aβ (β2AR): abolished the increased production of the secreted Aβ

Compound: COCCc1ccc(OCC(O)CNC(C)C)cc1 (centres unmarked) [Metoprolol]
- percent time spent in the platform quadrant, probe trial (APPswe/PS1ΔE9 mice [2]): showed no effect
- percent time spent in the platform quadrant, probe trial (APPswe/PS1ΔE9 mice [2]; listed as metoprolol): had no effect
- escape latency, visible platform training (APPswe/PS1ΔE9 mice [2]): no drug effect was observed
- escape latency, hidden platform training (APPswe/PS1ΔE9 mice [2]): showed no effect

Compound: CC(C)(C)NCC(O)c1cc(Cl)c(N)c(Cl)c1 (centres unmarked) [clenbuterol]
- escape latency, visible platform [5]: small, but statistically insignificant, effects of drug treatments; also recorded: No significant effect
- escape latency, hidden platform [5]: seemed to have no effect
- Aβ levels (Aβ40 and Aβ42) in hippocampus (Aβ40 and Aβ42): significantly enhanced; also recorded: increased secreted Aβ 40 and Aβ 42 levels
- cerebral amyloid plaques (APPswe/PS1ΔE9 mice [6]): accelerated amyloid plaque formation
- cerebral amyloid plaques (APPswe/PS1ΔE9 mice [6]; listed as Cle): increased cerebral amyloid plaques
- γ-secretase activity in hippocampus (γ-secretase [10]): significantly enhanced; also recorded: enhanced γ-secretase activity

Compound: CC(C)(C)NCC(O)COc1cccc2c1CC(O)C(O)C2 (centres unmarked) [nadolol]
- percent time spent in the platform quadrant, probe trial (APPswe/PS1ΔE9 mice [2]): had no effect
- escape latency, visible platform training (APPswe/PS1ΔE9 mice [2]): No genotype or drug effect
- escape latency, hidden platform training (APPswe/PS1ΔE9 mice [2]): showed no effect
- escape latency, hidden platform training (APPswe/PS1ΔE9 mice [2]; listed as Nadolol): showed no effect on the impairment

Compound: Oc1ccc2c3c1O[C@H]1c4[nH]c5ccccc5c4C[C@@]4(O)[C@@H](C2)N(CC2CC2)CC[C@]314 [naltrindole]
- effect on DADLE-induced Aβ production (δ-opioid receptor (DOR)): abolished the effect of DADLE
- crossing of the blood-brain barrier (BBB) [1]: can cross the BBB
- escape latency, visible platform training (APPswe/PS1ΔE9 mice [2]): no drug effect was observed
- escape latency, hidden platform training (APPswe/PS1ΔE9 mice [2]): ameliorated cognitive impairment

Compound: NC[C@H](O)c1ccc(O)c(O)c1 [norepinephrine]
- Aβ levels (Aβ40 and Aβ42) in hippocampus (Aβ40 and Aβ42): significantly enhanced; also recorded: increased secreted Aβ 40 and Aβ 42 levels
- γ-secretase activity in hippocampus (γ-secretase [10]): significantly enhanced; also recorded: enhanced γ-secretase activity

Compound: CC(C)NCC(O)COc1cccc2ccccc12 (centres unmarked) [propranolol]
- percent time spent in the platform quadrant, probe trial (APPswe/PS1ΔE9 mice [2]): partially ameliorated the impairment of spatial memory
- swim speed as cause of the observed effects (APPswe/PS1ΔE9 mice [2]): did not result from difference in swim speeds
- escape latency, visible platform training (APPswe/PS1ΔE9 mice [2]): No genotype or drug effect
- escape latency, hidden platform training (APPswe/PS1ΔE9 mice [2]): partially ameliorate the impairment

Compound: cholera toxin
- γ-secretase activity, compound alone (γ-secretase [7]): did not result in enhanced γ-secretase activity

Compound: concanavalin A [Con A]
- effect on Iso-induced enhancement of γ-secretase activity (γ-secretase [7]; C6 glioma, 10 μM Iso 30 min after pretreatment with 0.25 mg/ml Con A or 0.5 M Suc): abolished

Compound: pertussis toxin [PTX]
- effect on DADLE-induced enhancement of γ-secretase activity (γ-secretase [3]; SH-SY5Y, 1 μM DADLE after 12 hours pre-treatment with 200 ng/ml PTX): not abolished; also recorded: did not alter the enhancement of γ-secretase activity

Compound: transferrin
- γ-secretase activity (γ-secretase [11]): does not lead to enhanced γ-secretase activity; also recorded: failed to enhance γ-secretase activity
